According to patent publication US8192989B2, “Solid surface for biomolecule delivery and high-throughput assay” (Nitto Denko Corporation, priority 2003, dated 2012):

Columns and labels:
[1] = tested on: 293 cells; test: Cytotoxicity assay - MTT assay after transfection; assay type: cell-based
Protocol: Glutamine (100 mmol/L) and different transfection reagents (NDT-CP-B-1, NDT-CP-1, Superfect and lipofectamine 2000) were diluted in 0.2% gelatin solution, and 25 μl of the solution containing Glutamine/transfection reagent/gelatin was added into a 96 well plate and allowed to air dry. Then 25 μl GFP plasmid solution in opti MEM (20.0 μg/ml) was added into each well and incubated at room temperature for 25 min. The dried plate was ready for use (FIG. 32).
In this experiment, 0.2% gelatin or 0.2% gelatin and 40.0 μg/ml laminin mixture was used for diluting transfection reagents NDT-CP-B-1, NDT-CP-1, NDT-LP-1 NDT-LP-2, Superfect and lipofectamine 2000, and 25 μl solution was added into 96 well plate. The amounts of NDT polymers used in each well were 8, 4 or 2 μg, respectively, the amounts of Superfect were 15, 7.5 and 3.8 μg/well respectively, and the amounts of lipofectamine 2000 were 2.5, 1.25 and 0.63 μg/well respectively. […] The transfection efficiency and cytotoxicity were analyzed by fluorescent microscope and MTT assay (FIG. 33).
The cytotoxicities of transfection reagents on mammalian cells were evaluated using 3-[4,5 dimethylthiazol-2-yl]-2,5-diphenyltetrazolium bromide (MTT) method. […] The absorbance of the solution was measured at 570 nm. Cell viabilities was calculated using the equation: Viability (%)={Abs570 (sample)/Abs570 (control)}×100 (FIG. 31).

[2] = tested on: 293 cells; test: Effect of membrane disturbing peptide on PLL-laminin mediated gene transfer; assay type: cell-based; settings: membrane disturbing peptide in PLL-laminin based transfectable surface, 96-well (FIG. 28)

NC(=O)CC[C@H](N)C(=O)O [glutamine, Glutamine]
effect on transfection cytotoxicity ([1]; cytoreductive reagent added to transfectable surface, with versus without glutamine (FIG. 32)): significantly improved transfection cytotoxicity

laminin
effect on cytotoxicity caused by transfection reagents and procedures ([1]; cell attaching reagent in transfection reagents-gelatin surface, with versus without laminin (FIG. 33)): significantly improved cytotoxicity

RRRQGTWLNPGFPPQSCGYATVTDARRR (Chemically synthesized peptide corresponding to viral envelope protein VSVG) [VSVG peptide]
effect on transfection efficiency [2]: significantly enhance transfection efficiency
